# Reference: patent US20260297060A1, “COMPOUNDS FOR THE DEGRADATION OF MUTANT BRAF” (C4 THERAPEUTICS, INC., priority 2023, published 2026)
# Like-named read-outs stand apart in the source and are kept apart here.
# Assay: Pharmacokinetics in female BALB/c nude mice bearing A375 xenografts, 1 day dosing (PK and PD study): plasma, tumor and brain concentrations, AUC
# Type: in vivo
# Conditions: mouse, po
# Description: The concentrations of Dabrafenib, Compound 26 and Compound 141 in the treatment of female BALB/c nude mice bearing A375 xenografts are shown in Table 62-Table 72 and FIG. 52-FIG. 73.
# [1] = plasma, 1.5 mg/kg, Compound 141, 1.5 mg/kg p.o. BID × 1 day, post 1st dose, read-out: Mean Concentration in Plasma ± SEM
# [2] = plasma, 1.5 mg/kg, Compound 141, 1.5 mg/kg p.o. BID × 1 day, post 2nd dose, read-out: Mean Concentration in Plasma ± SEM
# [3] = plasma, 3 mg/kg, 3 mg/kg p.o. QD × 1 day, read-out: Mean Concentration in Plasma ± SEM
# [4] = plasma, 5 mg/kg, 5 mg/kg p.o. BID × 1 day, post 1st dose, read-out: Mean Concentration in Plasma ± SEM
# [5] = plasma, 5 mg/kg, 5 mg/kg p.o. BID × 1 day, post 2nd dose, read-out: Mean Concentration in Plasma ± SEM
# [6] = tumor, 0.75 mg/kg, 0.75 mg/kg p.o. BID × 1 day, post 2nd dose, read-out: Mean Concentration in Tumor ± SEM
# [7] = tumor, 1 mg/kg, 1 mg/kg p.o. TID × 1 day, post 3rd dose, read-out: Mean Concentration in Tumor ± SEM
# [8] = tumor, 1.5 mg/kg, Compound 141, 1.5 mg/kg p.o. BID × 1 day, post 2nd dose, read-out: Mean Concentration in Tumor ± SEM
# [9] = tumor, 3 mg/kg, 3 mg/kg p.o. QD × 1 day, read-out: Mean Concentration in Tumor ± SEM
# [10] = tumor, 5 mg/kg, 5 mg/kg p.o. BID × 1 day, post 2nd dose, read-out: Mean Concentration in Tumor ± SEM
smiles,measurement,setting,value
"CCN(C)S(=O)(=O)Nc1ccc(F)c(Oc2ccc3ncn(C4CC5(CCN(C6CC7(C6)CN(c6cc8c(cc6F)c(N6CCC(=O)NC6=O)nn8C)C7)CC5)C4)c(=O)c3c2)c1C#N (stereo not shown) [Compound 141, 6-[2-cyano-3-[[ethyl(methyl)sulfamoyl]amino]-6-fluoro-phenoxy]-3-[7-[2-[3-(2,4-dioxohexahydropyrimidin-1-yl)-5-fluoro-1-methyl-indazol-6-yl]-2-azaspiro[3.3]heptan-6-yl]-7-azaspiro[3.5]nonan-2-yl]-4-oxo-quinazoline]",concentration at 0.25 h,[1],710 ± 61.9 ng/mL
same,concentration at 0.5 h,[1],1150 ± 94 ng/mL
same,concentration at 1 h,[1],2030 ± 255 ng/mL
same,concentration at 2 h,[1],1610 ± 128 ng/mL
same,concentration at 4 h,[1],796 ± 312 ng/mL
same,concentration at 8 h,[1],256 ± 19.3 ng/mL
same,concentration at 12 h,[1],43.4 ± 4.65 ng/mL
same,concentration at 0.25 h,[2],359 ± 30.7 ng/mL
same,concentration at 0.5 h,[2],830 ± 129 ng/mL
same,concentration at 1 h,[2],1560 ± 99.1 ng/mL
same,concentration at 2 h,[2],1550 ± 181 ng/mL
same,concentration at 4 h,[2],831 ± 96.6 ng/mL
same,concentration at 10 h,[2],115 ± 34.3 ng/mL
same,concentration at 24 h,[2],1.2 ± 0.262 ng/mL
same,concentration at 0.25 h,[3],1070 ± 209 ng/mL
same,concentration at 0.5 h,[3],2020 ± 160 ng/mL
same,concentration at 1 h,[3],2830 ± 372 ng/mL
same,concentration at 2 h,[3],3660 ± 315 ng/mL
same,concentration at 4 h,[3],1440 ± 285 ng/mL
same,concentration at 8 h,[3],661 ± 279 ng/mL
same,concentration at 10 h,[3],307 ± 60.4 ng/mL
same,concentration at 24 h,[3],3.86 ± 2.5 ng/mL
same,concentration at 36 h,[3],1.05 ng/mL
same,concentration at 0.25 h,[4],1810 ± 126 ng/mL
same,concentration at 0.5 h,[4],3460 ± 404 ng/mL
same,concentration at 1 h,[4],4860 ± 155 ng/mL
same,concentration at 2 h,[4],3650 ± 760 ng/mL
same,concentration at 4 h,[4],1220 ± 55.5 ng/mL
same,concentration at 8 h,[4],648 ± 142 ng/mL
same,concentration at 12 h,[4],43.6 ± 2.7 ng/mL
same,concentration at 0.25 h,[5],1680 ± 89.6 ng/mL
same,concentration at 0.5 h,[5],3160 ± 596 ng/mL
same,concentration at 1 h,[5],4850 ± 488 ng/mL
same,concentration at 2 h,[5],3620 ± 428 ng/mL
same,concentration at 4 h,[5],1750 ± 468 ng/mL
same,concentration at 10 h,[5],484 ± 109 ng/mL
same,concentration at 24 h,[5],4.28 ± 1.89 ng/mL
same,concentration at 36 h,[5],2.06 ± 1.17 ng/mL
same,concentration at 48 h,[5],0.635 ng/mL
same,concentration at 1 h,[6],117 ± 11 ng/g
same,concentration at 4 h,[6],143 ± 37.7 ng/g
same,concentration at 10 h,[6],93 ± 22.1 ng/g
same,concentration at 24 h,[6],3.27 ng/g
same,concentration at 1 h,[7],152 ± 35.7 ng/g
same,concentration at 4 h,[7],254 ± 43.2 ng/g
same,concentration at 10 h,[7],205 ± 40.9 ng/g
same,concentration at 24 h,[7],16.7 ± 12.2 ng/g
same,concentration at 48 h,[7],8.07 ng/g
same,concentration at 0.25 h,[8],58.9 ± 26.7 ng/g
same,concentration at 0.5 h,[8],61.5 ± 14 ng/g
same,concentration at 1 h,[8],239 ± 17.6 ng/g
same,concentration at 2 h,[8],382 ± 43.9 ng/g
same,concentration at 4 h,[8],214 ± 27.1 ng/g
same,concentration at 10 h,[8],54.7 ± 17.9 ng/g
same,concentration at 24 h,[8],22.5 ± 18.5 ng/g
same,concentration at 36 h,[8],38.5 ng/g
same,concentration at 48 h,[8],11.1 ng/g
same,concentration at 1 h,[9],254 ± 26.3 ng/g
same,concentration at 4 h,[9],439 ± 90.9 ng/g
same,concentration at 10 h,[9],130 ± 19 ng/g
same,concentration at 24 h,[9],12.9 ± 7.75 ng/g
same,concentration at 48 h,[9],7.64 ng/g
same,concentration at 1 h,[10],626 ± 78.6 ng/g
same,concentration at 4 h,[10],636 ± 83.4 ng/g
same,concentration at 10 h,[10],205 ± 47.2 ng/g
same,concentration at 24 h,[10],6.26 ± 1.12 ng/g
same,concentration at 48 h,[10],10.6 ng/g
